Earlier results, collected in patent EP2479272A1, “METHOD FOR PRODUCING MONATIN” (Ajinomoto Co., Inc., priority 2010, dated 2012).

Settings: compared with sucrose; from Patent Document 1

SMILES: N[C@@H](CC(O)(Cc1c[nH]c2ccccc12)C(=O)O)C(=O)O (stereo partly shown) [Monatin, 4-(indole-3-yl-methyl)-4-hydroxy-glutamic acid]
- sweetness: one thousand and several hundreds times sweeter than sucrose
